For 22 compounds, MIC results are on record in ChEMBL document CHEMBL1165868, “Synthesis and antimicrobial activity of cholic acid hydrazone analogues” (2010).

Converted amounts (≈) assume the structure as drawn. The source made the active and inactive calls. No cut-off for these calls is given here.

Common to all, as to type: functional
For one assay, the system named is Enterococcus faecalis. Nature of the assay: Antimicrobial activity against Enterococcus faecalis after 24 hrs.
For the next assay, the system named is Escherichia coli. In words: Antimicrobial activity against Escherichia coli after 24 hrs.
In another assay the test system is Pseudomonas aeruginosa. In words: Antimicrobial activity against Pseudomonas aeruginosa after 24 hrs.
Another assay has as its system Priestia megaterium. Nature of the assay: Antimicrobial activity against Bacillus megaterium after 24 hrs.
In a further assay the test system is Staphylococcus aureus. In words: Antimicrobial activity against Staphylococcus aureus after 24 hrs.
In a further assay the test system is Klebsiella aerogenes. Nature of the assay: Antimicrobial activity against Enterobacter aerogenes after 24 hrs.

For `C[C@H](CCC(=O)O)[C@H]1CC[C@H]2[C@@H]3[C@H](O)C[C@@H]4C[C@H](O)CC[C@]4(C)[C@H]3C[C@H](O)[C@]12C` [CHOLIC ACID], the MIC in the assay on Enterococcus faecalis was determined as 31.2 µg/mL (≈ 76.5 µM); in the assay on Escherichia coli, 7.81 µg/mL (≈ 19.1 µM); in the assay with Pseudomonas aeruginosa it was 15.6 µg/mL (≈ 38.3 µM). Moreover, the MIC entry in the assay on Priestia megaterium, with Staphylococcus aureus and with Klebsiella aerogenes was “inactive” throughout.

Turning to `C[C@H](CCC(=O)NN)[C@H]1CC[C@H]2[C@@H]3[C@H](O)C[C@@H]4C[C@H](O)CC[C@]4(C)[C@H]3C[C@H](O)[C@]12C` [CHOLYLHYDRAZIDE], the MIC with Enterococcus faecalis and in the assay with Priestia megaterium was 31.2 µg/mL (≈ 73.9 µM) in each case. Moreover, the MIC result in the assay with Escherichia coli, in the assay on Pseudomonas aeruginosa, in the assay with Staphylococcus aureus and in the assay with Klebsiella aerogenes was “inactive” each time.

`C[C@H](CCC(=O)N/N=C/c1ccccc1O)[C@H]1CC[C@H]2[C@@H]3[C@H](O)C[C@@H]4C[C@H](O)CC[C@]4(C)[C@H]3C[C@H](O)[C@]12C`: the MIC with Enterococcus faecalis was 7.82 µg/mL (≈ 14.8 µM); against Priestia megaterium it was 31.2 µg/mL (≈ 59.3 µM); against Staphylococcus aureus, 31.2 µg/mL (≈ 59.3 µM). Moreover, the MIC entry with Escherichia coli, in the assay on Pseudomonas aeruginosa and in the assay on Klebsiella aerogenes was “inactive” in each case.

Consider `COc1ccc(/C=N/NC(=O)CC[C@@H](C)[C@H]2CC[C@H]3[C@@H]4[C@H](O)C[C@@H]5C[C@H](O)CC[C@]5(C)[C@H]4C[C@H](O)[C@]23C)cc1`, for which the MIC with Enterococcus faecalis stood at 15.6 µg/mL (≈ 28.9 µM); against Escherichia coli, 7.81 µg/mL (≈ 14.4 µM); in the assay with Priestia megaterium it was 31.2 µg/mL (≈ 57.8 µM); in the assay with Staphylococcus aureus, 62.5 µg/mL (≈ 116 µM). The MIC result in the assay with Pseudomonas aeruginosa and with Klebsiella aerogenes was “inactive” in each case.

On to `C[C@H](CCC(=O)N/N=C/c1ccco1)[C@H]1CC[C@H]2[C@@H]3[C@H](O)C[C@@H]4C[C@H](O)CC[C@]4(C)[C@H]3C[C@H](O)[C@]12C`, for which the MIC entry with Enterococcus faecalis, with Escherichia coli, in the assay with Pseudomonas aeruginosa, in the assay on Staphylococcus aureus and in the assay with Klebsiella aerogenes was “inactive” each time. In addition, in the assay with Priestia megaterium, the MIC stood at 31.2 µg/mL (≈ 62.4 µM).

Turning to `C[C@H](CCC(=O)N/N=C/c1cccc(Cl)c1)[C@H]1CC[C@H]2[C@@H]3[C@H](O)C[C@@H]4C[C@H](O)CC[C@]4(C)[C@H]3C[C@H](O)[C@]12C`, the MIC against Enterococcus faecalis came to 1.96 µg/mL (≈ 3.6 µM); with Escherichia coli, 3.91 µg/mL (≈ 7.17 µM); in the assay on Priestia megaterium, 31.2 µg/mL (≈ 57.3 µM); with Staphylococcus aureus, 31.2 µg/mL (≈ 57.3 µM). Moreover, the MIC entry with Pseudomonas aeruginosa and in the assay on Klebsiella aerogenes was “inactive” each time.

As for `C[C@H](CCC(=O)N/N=C/c1ccccc1)[C@H]1CC[C@H]2[C@@H]3[C@H](O)C[C@@H]4C[C@H](O)CC[C@]4(C)[C@H]3C[C@H](O)[C@]12C`, the MIC against Enterococcus faecalis amounted to 15.6 µg/mL (≈ 30.6 µM); in the assay on Escherichia coli it was 3.91 µg/mL (≈ 7.66 µM); against Priestia megaterium, 31.2 µg/mL (≈ 61.2 µM); in the assay on Staphylococcus aureus, 62.5 µg/mL (≈ 122 µM). Besides, the MIC result in the assay on Pseudomonas aeruginosa and with Klebsiella aerogenes was “inactive” in each case.

Regarding `COc1ccc(OC)c(/C=N/NC(=O)CC[C@@H](C)[C@H]2CC[C@H]3[C@@H]4[C@H](O)C[C@@H]5C[C@H](O)CC[C@]5(C)[C@H]4C[C@H](O)[C@]23C)c1`, the MIC in the assay with Enterococcus faecalis was found to be 15.6 µg/mL (≈ 27.4 µM); in the assay with Priestia megaterium, 31.2 µg/mL (≈ 54.8 µM). Moreover, the MIC entry in the assay with Escherichia coli, in the assay on Pseudomonas aeruginosa, in the assay on Staphylococcus aureus and in the assay on Klebsiella aerogenes was “inactive” each time.

Regarding `C[C@H](CCC(=O)N/N=C/c1cc2ccccc2[nH]1)[C@H]1CC[C@H]2[C@@H]3[C@H](O)C[C@@H]4C[C@H](O)CC[C@]4(C)[C@H]3C[C@H](O)[C@]12C`, the figures for the MIC in the assay on Enterococcus faecalis, in the assay on Priestia megaterium and with Staphylococcus aureus were 3.91 µg/mL (≈ 7.11 µM), 15.6 µg/mL (≈ 28.4 µM) and 31.2 µg/mL (≈ 56.8 µM), respectively. The MIC entry in the assay with Escherichia coli, with Pseudomonas aeruginosa and in the assay with Klebsiella aerogenes was “inactive” throughout.

As to `C=CC1=C(C(=O)O)N2C(=O)[C@@H](NC(=O)/C(=N\OCC(=O)O)c3csc(N)n3)[C@H]2SC1` [CEFIXIME], the MIC against Enterococcus faecalis worked out at 31.2 µg/mL (≈ 68.9 µM); against Escherichia coli it was 1.96 µg/mL (≈ 4.32 µM); with Pseudomonas aeruginosa it was 19.5 µg/mL (≈ 43.1 µM); against Staphylococcus aureus it was 31.2 µg/mL (≈ 68.9 µM); with Klebsiella aerogenes it was 31.2 µg/mL (≈ 68.9 µM). In addition, in the assay with Priestia megaterium, the MIC entry is “inactive”.

As to `COc1cccc(/C=N/NC(=O)CC[C@@H](C)[C@H]2CC[C@H]3[C@@H]4[C@H](O)C[C@@H]5C[C@H](O)CC[C@]5(C)[C@H]4C[C@H](O)[C@]23C)c1OC`, the MIC in the assay with Enterococcus faecalis amounted to 15.6 µg/mL (≈ 27.4 µM); in the assay with Escherichia coli, 3.91 µg/mL (≈ 6.85 µM); in the assay with Priestia megaterium it was 31.2 µg/mL (≈ 54.8 µM). Further, the MIC result with Pseudomonas aeruginosa, in the assay on Staphylococcus aureus and in the assay on Klebsiella aerogenes was “inactive” throughout.

Consider `C[C@H](CCC(=O)N/N=C/c1ccccn1)[C@H]1CC[C@H]2[C@@H]3[C@H](O)C[C@@H]4C[C@H](O)CC[C@]4(C)[C@H]3C[C@H](O)[C@]12C`, for which the MIC entry in the assay on Enterococcus faecalis, with Pseudomonas aeruginosa, in the assay on Staphylococcus aureus and in the assay on Klebsiella aerogenes was “inactive” throughout. In addition, the MIC against Escherichia coli was 7.81 µg/mL (≈ 15.3 µM); against Priestia megaterium, 31.2 µg/mL (≈ 61.1 µM).

Take `C[C@H](CCC(=O)N/N=C/c1ccc(Cl)cc1)[C@H]1CC[C@H]2[C@@H]3[C@H](O)C[C@@H]4C[C@H](O)CC[C@]4(C)[C@H]3C[C@H](O)[C@]12C`: the MIC in the assay on Enterococcus faecalis is 1.96 µg/mL (≈ 3.6 µM); against Escherichia coli, 3.91 µg/mL (≈ 7.17 µM); with Priestia megaterium, 31.2 µg/mL (≈ 57.3 µM); in the assay on Staphylococcus aureus it was 62.5 µg/mL (≈ 115 µM). In addition, the MIC entry in the assay with Pseudomonas aeruginosa and in the assay with Klebsiella aerogenes was “inactive” in each case.

As to `C[C@H](CCC(=O)N/N=C/c1ccc(C#N)cc1)[C@H]1CC[C@H]2[C@@H]3[C@H](O)C[C@@H]4C[C@H](O)CC[C@]4(C)[C@H]3C[C@H](O)[C@]12C`, the MIC in the assay with Enterococcus faecalis came to 15.6 µg/mL (≈ 29.2 µM); against Escherichia coli, 7.81 µg/mL (≈ 14.6 µM); with Priestia megaterium, 31.2 µg/mL (≈ 58.3 µM); with Staphylococcus aureus it was 31.2 µg/mL (≈ 58.3 µM). The MIC result in the assay on Pseudomonas aeruginosa and with Klebsiella aerogenes was “inactive” throughout.

In the case of `Cc1ccc(/C=N/NC(=O)CC[C@@H](C)[C@H]2CC[C@H]3[C@@H]4[C@H](O)C[C@@H]5C[C@H](O)CC[C@]5(C)[C@H]4C[C@H](O)[C@]23C)cc1`, the MIC in the assay with Enterococcus faecalis is 7.82 µg/mL (≈ 14.9 µM); with Escherichia coli it was 7.81 µg/mL (≈ 14.9 µM); with Staphylococcus aureus, 31.2 µg/mL (≈ 59.6 µM). For the same compound, the MIC result in the assay with Pseudomonas aeruginosa, with Priestia megaterium and in the assay on Klebsiella aerogenes was “inactive” throughout.

Consider `C[C@H](CCC(=O)N/N=C/c1ccc([N+](=O)[O-])cc1)[C@H]1CC[C@H]2[C@@H]3[C@H](O)C[C@@H]4C[C@H](O)CC[C@]4(C)[C@H]3C[C@H](O)[C@]12C`, for which the MIC worked out at 7.82 µg/mL (≈ 14.1 µM) in the assay on Enterococcus faecalis, 7.81 µg/mL (≈ 14.1 µM) with Escherichia coli, 31.2 µg/mL (≈ 56.2 µM) with Priestia megaterium and 31.2 µg/mL (≈ 56.2 µM) against Staphylococcus aureus. The MIC entry in the assay with Pseudomonas aeruginosa and in the assay with Klebsiella aerogenes was “inactive” each time.

As for `C[C@H](CCC(=O)N/N=C/c1ccc(Br)cc1)[C@H]1CC[C@H]2[C@@H]3[C@H](O)C[C@@H]4C[C@H](O)CC[C@]4(C)[C@H]3C[C@H](O)[C@]12C`, the MIC was determined as 3.91 µg/mL (≈ 6.63 µM) against Enterococcus faecalis, 3.91 µg/mL (≈ 6.63 µM) with Escherichia coli, 7.82 µg/mL (≈ 13.3 µM) in the assay on Priestia megaterium and 62.5 µg/mL (≈ 106 µM) in the assay on Staphylococcus aureus. In addition, the MIC entry with Pseudomonas aeruginosa and with Klebsiella aerogenes was “inactive” each time.

Regarding `C[C@H](CCC(=O)N/N=C/c1ccc(Cl)c([N+](=O)[O-])c1)[C@H]1CC[C@H]2[C@@H]3[C@H](O)C[C@@H]4C[C@H](O)CC[C@]4(C)[C@H]3C[C@H](O)[C@]12C`, the MIC against Enterococcus faecalis is 3.91 µg/mL (≈ 6.63 µM); in the assay with Escherichia coli, 7.81 µg/mL (≈ 13.2 µM); in the assay on Priestia megaterium, 31.2 µg/mL (≈ 53 µM); with Staphylococcus aureus, 31.2 µg/mL (≈ 53 µM). The MIC entry with Pseudomonas aeruginosa and in the assay on Klebsiella aerogenes was “inactive” in each case.

Take `C[C@H](CCC(=O)N/N=C/c1ccc(F)cc1)[C@H]1CC[C@H]2[C@@H]3[C@H](O)C[C@@H]4C[C@H](O)CC[C@]4(C)[C@H]3C[C@H](O)[C@]12C`: the MIC was 62.5 µg/mL (≈ 118 µM) against Enterococcus faecalis, 31.2 µg/mL (≈ 59.1 µM) against Priestia megaterium and 31.2 µg/mL (≈ 59.1 µM) in the assay with Staphylococcus aureus. Further, the MIC result in the assay on Escherichia coli, in the assay on Pseudomonas aeruginosa and in the assay on Klebsiella aerogenes was “inactive” in each case.

For `C[C@H](CCC(=O)N/N=C/c1ccc[nH]1)[C@H]1CC[C@H]2[C@@H]3[C@H](O)C[C@@H]4C[C@H](O)CC[C@]4(C)[C@H]3C[C@H](O)[C@]12C`, the MIC entry in the assay on Enterococcus faecalis, with Escherichia coli, in the assay on Pseudomonas aeruginosa, in the assay on Staphylococcus aureus and with Klebsiella aerogenes was “inactive” throughout. This compound also registered an MIC against Priestia megaterium of 31.2 µg/mL (≈ 62.5 µM).

Turning to `N[C@@H](C(=O)N[C@@H]1C(=O)N2C(C(=O)O)=C(Cl)CS[C@H]12)c1ccccc1` [CEFACLOR ANHYDROUS], the MIC against Enterococcus faecalis came out at 31.2 µg/mL (≈ 85 µM); against Priestia megaterium, 31.2 µg/mL (≈ 85 µM); in the assay with Staphylococcus aureus, 31.2 µg/mL (≈ 85 µM); against Klebsiella aerogenes, 7.82 µg/mL (≈ 21.3 µM). The MIC result with Escherichia coli and in the assay on Pseudomonas aeruginosa was “inactive” throughout.

Consider `C[C@H](CCC(=O)N/N=C/c1cccs1)[C@H]1CC[C@H]2[C@@H]3[C@H](O)C[C@@H]4C[C@H](O)CC[C@]4(C)[C@H]3C[C@H](O)[C@]12C`, for which the MIC in the assay with Enterococcus faecalis came to 31.2 µg/mL (≈ 60.5 µM); against Priestia megaterium it was 15.6 µg/mL (≈ 30.2 µM); against Staphylococcus aureus, 62.5 µg/mL (≈ 121 µM). In addition, the MIC result in the assay with Escherichia coli, in the assay on Pseudomonas aeruginosa and in the assay on Klebsiella aerogenes was “inactive” each time.

The MIC is the least concentration at which growth counts as inhibited.
